Measured values reported in patent publication US6716588B2, “System for cell-based screening” (Cellomics, Inc., priority 1999, dated 2004).

Assays:
[1] = test system: SNB-19 cells; experiment: High-content screen of drug-induced apoptosis, SNB-19 cells; type: cell-based
Experimental: Cell preparation. The cells chosen for this study were mouse connective tissue fibroblasts (L-929; ATCC CCL-1) and a highly invasive glioblastoma cell line (SNB-19; ATCC CRL-2219) (Welch et al., In Vitro Cell. Dev. Biol. 31:610, 1995). The day before treatment with an apoptosis inducing drug, 3500 cells were placed into each well of a 96-well plate and incubated overnight at 37° C. in a humidified 5% CO2 atmosphere. The following day, the culture medium was removed from each well and replaced with fresh medium containing various concentrations of paclitaxel (0-50 μM) from a 20 mM stock made in DMSO. The maximal concentration of DMSO used in these experiments was 0.25%. The cells were then incubated for 26 h as above. At the end of the paclitaxel treatment period, each well received fresh medium containing 750 nM MitoTracker Red (Molecular Probes; Eugene, Oreg.) and 3 μg/ml Hoechst 33342 DNA-binding dye (Molecular Probes) and was incubated as above for 20 min. […] The fluorescence signals from plates stored this way were stable for at least two weeks after preparation. As in the nuclear translocation assay, fluorescence reagents can be designed to convert this assay into a live cell high-content screen.
Image acquisition and analysis on the ArrayScan System. The fluorescence intensity of intracellular MitoTracker Red, Hoechst 33342, and Bodipy FL phallacidin was measured with the cell screening system as described supra. […]
Calculations and output. A total of 50-250 cells were measured per image field. For each field of cells, the following calculations were performed: (1) The average nuclear area (μm^2) was calculated by dividing the total nuclear area in a field by the number of nuclei detected. (2) The average nuclear perimeter (μm) was calculated by dividing the sum of the perimeters of all nuclei in a field by the number of nuclei detected in that field. […] (3) The average nuclear brightness was calculated by dividing the integrated intensity of the entire field of nuclei by the number of nuclei in that field. […]

[2] = test system: L-929 cells; experiment: High-content screen of drug-induced apoptosis, L-929 cells; type: cell-based, mouse
Experimental: Cell preparation. The cells chosen for this study were mouse connective tissue fibroblasts (L-929; ATCC CCL-1) and a highly invasive glioblastoma cell line (SNB-19; ATCC CRL-2219) (Welch et al., In Vitro Cell. Dev. Biol. 31:610, 1995). The day before treatment with an apoptosis inducing drug, 3500 cells were placed into each well of a 96-well plate and incubated overnight at 37° C. in a humidified 5% CO2 atmosphere. The following day, the culture medium was removed from each well and replaced with fresh medium containing various concentrations of paclitaxel (0-50 μM) from a 20 mM stock made in DMSO. The maximal concentration of DMSO used in these experiments was 0.25%. The cells were then incubated for 26 h as above. At the end of the paclitaxel treatment period, each well received fresh medium containing 750 nM MitoTracker Red (Molecular Probes; Eugene, Oreg.) and 3 μg/ml Hoechst 33342 DNA-binding dye (Molecular Probes) and was incubated as above for 20 min. Each well on the plate was then washed with HBSS and fixed with 3.7% formaldehyde in HBSS for 15 min at room temperature. The formaldehyde was washed out with HBSS and the cells were permeabilized for 90 s with 0.5% (v/v) Triton X-100, washed with HBSS, incubated with 2 U ml^−1 Bodipy FL phallacidin (Molecular Probes) for 30 min, and washed with HBSS. The wells on the plate were then filled with 200 μl HBSS, sealed, and the plate stored at 4° C. if necessary. The fluorescence signals from plates stored this way were stable for at least two weeks after preparation. As in the nuclear translocation assay, fluorescence reagents can be designed to convert this assay into a live cell high-content screen.
Image acquisition and analysis on the ArrayScan System. The fluorescence intensity of intracellular MitoTracker Red, Hoechst 33342, and Bodipy FL phallacidin was measured with the cell screening system as described supra. Morphometric data from each pair of images obtained from each well was also obtained to detect each object in the image field (e.g., cells and nuclei), and to calculate its size, shape, and integrated intensity.
Calculations and output. A total of 50-250 cells were measured per image field. For each field of cells, the following calculations were performed: (1) The average nuclear area (μm^2) was calculated by dividing the total nuclear area in a field by the number of nuclei detected. (2) The average nuclear perimeter (μm) was calculated by dividing the sum of the perimeters of all nuclei in a field by the number of nuclei detected in that field. Highly convoluted apoptotic nuclei had the largest nuclear perimeter values. (3) The average nuclear brightness was calculated by dividing the integrated intensity of the entire field of nuclei by the number of nuclei in that field. An increase in nuclear brightness was correlated with increased DNA content. (4) The average cellular brightness was calculated by dividing the integrated intensity of an entire field of cells stained with MitoTracker dye by the number of nuclei in that field. Because the amount of MitoTracker dye that accumulates within the mitochondria is proportional to the mitochondrial potential, an increase in the average cell brightness is consistent with an increase in mitochondrial potential. (5) The average cellular brightness was also calculated by dividing the integrated intensity of an entire field of cells stained with Bodipy FL phallacidin dye by the number of nuclei in that field. […]

[3] = test system: A549 cells; experiment: Cell spreading assay, A549 cells; type: cell-based, human; conditions: for inhibition of cell spreading: 10 μM; for stimulation of spreading by matrix protein / completeness of cell spreading on matrix protein: A549 cells plated on matrix protein
Experimental: (§1) Compounds that interfere with metastasis of prostate carcinoma cells were screened as follows. PC3 human prostate carcinoma cells (ATCC # CRL 1435) were cultured in media with appropriate stimulants and passaged to collagen coated 96 well plates. Similar experiments were also conducted with MDA-MB231, a breast carcinoma cell line (ATCC # HTB-26), A549 human lung carcinoma cell line (ATCC # CCL 185), and primary HMVEC-d human skin microvessel endothelial cells (Clonetics Walkersville, Md.
(§2) Conditions in which cell spreading could be augmented or diminished were tested in various ways, including plating the cells on collagen coated (various concentrations) or collagen free substrates, varying the time of cell spreading prior to analysis, and plating cells in the presence of chemical modulators. After two hours, cells were fixed and stained with ALEXA™ 488 phalloidin (Molecular Probes) and Hoechst 33342 as per the protocol for cellular hypertrophy. The size of cells under these various conditions, as measured by cytoplasmic staining, was distinguished from background levels. The number of cells per field was determined by measuring the number of nuclei stained with the Hoechst DNA dye. The area per cell was found by dividing the cytoplasmic area (phalloidin image) by the cell number (Hoechst image).
(§3) To illustrate how cell spreading is a unique functional event that can be distinguished from attachment and motility by drug effects, we performed the following experiments. A549 cancer cells were allowed to spread on a collagen I coated substrate for 3 hours, and then were fixed and stained with rhodamine phalloidin. The number of cells that spread beyond a selectable threshold area was measured as a function of increasing concentrations of cytochalasin D. While cells normally spread to a size much larger than the nucleus in this time interval, cytochalasin D maintained cells in a tight rounded morphology not much larger than the nucleus. The movement of A549 cells was measured at 18 hours after plating. At a concentration of 0.5 μM, cytochalasin D prevented spreading of 80% of cells but permitted movement of 70% of cells. Cytochalasin had no effect on adhesion to the substrate as measured by the number of cells that remain attached after a 3 hour incubation.
(§4) The spreading of cells is a function of the ligands and cell receptors that are employed, and plating cells on different immobilized ligands will selectively bind to matched cell surface receptors. A549 cells were plated on various matrix proteins and allowed to spread for 3 and for 5 hours. […] Thus ligand-dependent differences in the kinetics of cell spreading can be measured. In addition, strong differences in the activation of spreading were seen on different matrices. […] In contrast to spreading, cell motility presented a very different biological profile of these matrix proteins. […] In further experiments, cells were allowed to spread in the presence of various kinase inhibitors and the effect on cell spreading was determined.

[4] = test system: A549 cells; experiment: Cell movement (motility) of A549 cells; type: cell-based, human; conditions: for inhibition of cell movement (motility): 10 μM; for stimulation of movement by matrix protein: A549 cells plated on matrix protein
Experimental: as §3, §4

[5] = test system: PC-3 cells; experiment: Cell spreading assay, PC-3 cells; type: cell-based, human; conditions: for ability of cells to spread (percentage of cells with Cyto minus NucArea above threshold): PC-3 on type I collagen, 3 hours
Experimental: as §1, §2

[6] = test system: NF-KB transcription factor; experiment: Cytoplasm to nucleus translocation screen of NF-KB (NucCyt Difference); type: cell-based, human; conditions: titrated in the presence of IL-1α
Experimental: The distribution of the transcription factor is determined by labeling the nuclei with a DNA specific fluorophore like […] and the transcription factor with a specific fluorescent antibody. After autofocusing on the Hoechst labeled nuclei, an image of the nuclei is acquired in the cell-based screening system and used to create a mask by one of several optional thresholding methods, as described supra. The morphological descriptors of the regions defined by the mask are compared with the user defined parameters and valid nuclear masks are identified and used with the following method to extract transcription factor distributions. Each valid nuclear mask is eroded to define a slightly smaller nuclear region. The original nuclear mask is then dilated in two steps to define a ring shaped region around the nucleus, which represents a cytoplasmic region. The average antibody fluorescence in each of these two regions is determined, and the difference between these averages is defined as the NucCyt Difference. […] Using these two sampling regions, data on nuclear translocation can be automatically analyzed by the cell-based screening system on a cell by cell basis. […]

## CC(=O)O[C@H]1C(=O)[C@@]2(C)[C@H]([C@H](OC(=O)c3ccccc3)[C@]3(O)C[C@H](OC(=O)[C@H](O)[C@@H](NC(=O)c4ccccc4)c4ccccc4)C(C)=C1C3(C)C)[C@]1(OC(C)=O)CO[C@@H]1C[C@@H]2O [paclitaxel]
[1]; 10 nM paclitaxel, 26 h
  mitochondrial potential: minimal
[1]; 26 h
  concentration at which area, brightness, fragmentation of the nucleus and actin polymerization reached a maximum value: 10 nM
[1]; >10 nM paclitaxel
  all the parameters measured at increasing concentrations: approached control levels
[2]; L-929 cells, 26 h
  concentration of maximal response in many parameters: 5 µM
[2]; L-929 cells, any of the concentrations tested (0-50 μM)
  mitochondrial potential: did not show a sharp decrease
[2]; L-929 cells, each parameter measured
  sensitivity to low concentrations compared with SNB-19 cells: less sensitive
[2]; L-929 cells, increasing amounts of paclitaxel
  nuclear morphology: caused nuclei to enlarge and fragment
[2]; L-929 vs SNB-19
  dose of maximal response, L-929 relative to SNB-19 cells: 500 fold

## O=c1c(-c2ccc(O)cc2)coc2cc(O)cc(O)c12 [genistein]
[3]
  inhibition of cell spreading: ineffective
[4]
  inhibition of cell movement (motility): ineffective

## Calphostin C
[3]
  inhibition of cell spreading: equally effective at inhibiting cell spreading and movement
[4]
  inhibition of cell movement (motility): equally effective at inhibiting cell spreading and movement

## C[S+](C)[O-] [DMSO]
[5]; DMSO 2.5%
  ability of cells to spread (percentage of cells with Cyto minus NucArea above threshold): significantly reduced
[5]; DMSO 5%
  ability of cells to spread (percentage of cells with Cyto minus NucArea above threshold): significantly reduced
[5]; DMSO at or below 1%
  ability of cells to spread (percentage of cells with Cyto minus NucArea above threshold): no effect

## C=C1[C@@H](C)[C@H]2[C@H](Cc3ccccc3)NC(=O)[C@]23[C@H](OC(C)=O)/C=C/[C@@](C)(O)C(=O)[C@@H](C)C/C=C/[C@H]3[C@@H]1O [cytochalasin D]
[3]; 0.5 μM, collagen I coated substrate, 3 hours
  cells prevented from spreading: 80%
[3]; 3 hour incubation
  adhesion to the substrate (number of cells that remain attached): no effect
[5]; cell line not given
  binding of cells to the substrate: did not affect binding of cells to the substrate
  spreading on various substrates: prevented their spreading
[4]; 0.5 μM, movement measured at 18 hours after plating
  cells permitted to move: 70%

## collagen I: matrix protein used as substrate coating
[3]
  stimulation of spreading by matrix protein: maximally stimulated both movement and spreading
[3]; 3 hours
  completeness of cell spreading on matrix protein: complete by 3 hours
[5]; PC-3 cells on a defined collagen I matrix
  time at which cell spreading was achieved: 2 to 3 h
[4]
  stimulation of movement by matrix protein: maximally stimulated both movement and spreading

## IL-1RA: an antagonist to the receptor for IL-1
[6]
  inhibition of translocation induced by IL-1α: progressively inhibiting the translocation

## CN([C@@H](Cc1ccc(OS(=O)(=O)c2cccc3cnccc23)cc1)C(=O)N1CCN(c2ccccc2)CC1)S(=O)(=O)c1cccc2cnccc12 [KN-62]
[3]
  inhibition of cell spreading: ineffective
[4]
  inhibition of cell movement (motility): ineffective

## O=C(O)CN(CCN(CC(=O)O)CC(=O)O)CC(=O)O [EDTA]
[5]; PC-3 cells, 50 mM
  cell adherence: inhibited cell adherence
  cell spreading: inhibited cell spreading

## laminin
[3]
  stimulation of spreading by matrix protein: minimally stimulating spreading
[3]; 3 hours
  completeness of cell spreading on matrix protein: complete by 3 hours
[4]
  stimulation of movement by matrix protein: maximally stimulated movement

## fibronectin
[3]
  stimulation of spreading by matrix protein: maximally stimulated spreading
[3]; 3 hours
  completeness of cell spreading on matrix protein: incomplete
[4]
  stimulation of movement by matrix protein: minimally stimulated movement
